Patent US20140005163A1 (NOVARTIS AG, priority 2010, published 2014)

Key:
PI3K beta = target: T1, PI3K beta (Homo sapiens, UniProt P42338); assay: PI3K beta kinase assay (Kinase-Glo luminescence); assay type: biochemical
T1 construct: for the full-length p110-b subunit are generated and fused by overlapping PCR; p85(iSH2) fusion partner (see partner chain) (N); His tag (C); made in house; host or cells: baculovirus; Tn5 (Trichoplusia ni) or TiniPro insect cells
Summary of the method: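 Kinase-Glo luminescence after a 60 min room-temperature reaction gives remaining ATP. The reaction holds 25 nM p85(iSH2)-p110β full-length His-tagged construct, 1 μM ATP, 10 μg/mL PI, and eight compound concentrations at 0.45% DMSO final. IC50 values come from a four-parameter logistic fit.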

PI3K gamma = target: T2, PI3K gamma (Homo sapiens, UniProt P48736); assay: PI3K gamma kinase assay (Kinase-Glo luminescence); assay type: biochemical
T2 construct: His tag (C); made in house; host or cells: baculovirus (pVL1393); Tn5 or TiniPro insect cells; construct from Roger Williams lab, MRC LMB
Summary of the method: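 PI3Kγ (150 nM) reaction run 120 min at room temperature with phosphatidylinositol substrate (10 μg/mL) and ATP (1 μM) in Tris pH 7.5 buffer containing MgCl2, NaCl, CHAPS and DTT. Remaining ATP detected by Kinase-Glo luminescence; 8 concentrations per compound, IC50 from 4-parameter curve fitting.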

[1] = system: PKB Ser473 phosphorylation in Rat1-myr-HA-p110 delta cells; assay: Reverse protein array assay, PKB Ser473 phosphorylation in Rat1-myr-p110 delta cells; assay type: cell-based; details: read-out: p-PKB IC50
Summary of the method: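 After at least 20 h of culture, the p110 isoform-transfected Rat1 lines receive compound in an 8-step dilution series, keeping DMSO at 0.2%, for 30 minutes. Cells are then lysed and lysates arrayed on chips for fluorescence detection of Ser473-phosphorylated PKB.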

T1 sequence (P42338 with tags, fused parts or gaps limits assumed): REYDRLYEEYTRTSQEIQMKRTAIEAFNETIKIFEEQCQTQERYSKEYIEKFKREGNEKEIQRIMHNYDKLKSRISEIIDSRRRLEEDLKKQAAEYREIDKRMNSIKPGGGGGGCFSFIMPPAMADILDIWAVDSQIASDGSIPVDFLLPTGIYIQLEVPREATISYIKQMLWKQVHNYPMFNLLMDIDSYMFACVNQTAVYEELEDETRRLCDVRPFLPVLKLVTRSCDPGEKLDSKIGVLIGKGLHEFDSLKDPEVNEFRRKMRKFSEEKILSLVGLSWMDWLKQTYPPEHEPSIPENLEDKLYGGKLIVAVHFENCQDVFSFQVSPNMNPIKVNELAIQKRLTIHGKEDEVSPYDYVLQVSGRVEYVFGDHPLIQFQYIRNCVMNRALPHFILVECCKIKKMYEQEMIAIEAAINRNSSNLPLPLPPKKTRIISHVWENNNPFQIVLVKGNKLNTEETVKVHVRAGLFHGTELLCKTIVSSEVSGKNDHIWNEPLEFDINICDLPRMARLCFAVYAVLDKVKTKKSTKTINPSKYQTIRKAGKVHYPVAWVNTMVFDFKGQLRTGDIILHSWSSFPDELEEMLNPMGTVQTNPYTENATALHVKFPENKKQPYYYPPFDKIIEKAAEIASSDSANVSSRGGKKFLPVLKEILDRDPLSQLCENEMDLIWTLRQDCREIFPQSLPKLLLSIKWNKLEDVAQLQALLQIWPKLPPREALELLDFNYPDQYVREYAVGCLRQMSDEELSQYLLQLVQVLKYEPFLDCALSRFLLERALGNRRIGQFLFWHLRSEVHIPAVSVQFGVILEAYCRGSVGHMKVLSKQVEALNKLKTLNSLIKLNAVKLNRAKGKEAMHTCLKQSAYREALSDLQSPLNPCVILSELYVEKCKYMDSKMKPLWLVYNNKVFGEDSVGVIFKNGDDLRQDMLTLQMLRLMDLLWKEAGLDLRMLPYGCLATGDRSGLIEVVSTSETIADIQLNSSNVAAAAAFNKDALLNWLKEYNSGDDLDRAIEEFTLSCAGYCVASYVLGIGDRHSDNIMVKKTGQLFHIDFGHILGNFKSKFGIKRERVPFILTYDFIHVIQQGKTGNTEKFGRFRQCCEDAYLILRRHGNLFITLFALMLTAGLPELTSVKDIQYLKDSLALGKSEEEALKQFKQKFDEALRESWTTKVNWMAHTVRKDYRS
T2 sequence (P48736 144-1102 limits assumed): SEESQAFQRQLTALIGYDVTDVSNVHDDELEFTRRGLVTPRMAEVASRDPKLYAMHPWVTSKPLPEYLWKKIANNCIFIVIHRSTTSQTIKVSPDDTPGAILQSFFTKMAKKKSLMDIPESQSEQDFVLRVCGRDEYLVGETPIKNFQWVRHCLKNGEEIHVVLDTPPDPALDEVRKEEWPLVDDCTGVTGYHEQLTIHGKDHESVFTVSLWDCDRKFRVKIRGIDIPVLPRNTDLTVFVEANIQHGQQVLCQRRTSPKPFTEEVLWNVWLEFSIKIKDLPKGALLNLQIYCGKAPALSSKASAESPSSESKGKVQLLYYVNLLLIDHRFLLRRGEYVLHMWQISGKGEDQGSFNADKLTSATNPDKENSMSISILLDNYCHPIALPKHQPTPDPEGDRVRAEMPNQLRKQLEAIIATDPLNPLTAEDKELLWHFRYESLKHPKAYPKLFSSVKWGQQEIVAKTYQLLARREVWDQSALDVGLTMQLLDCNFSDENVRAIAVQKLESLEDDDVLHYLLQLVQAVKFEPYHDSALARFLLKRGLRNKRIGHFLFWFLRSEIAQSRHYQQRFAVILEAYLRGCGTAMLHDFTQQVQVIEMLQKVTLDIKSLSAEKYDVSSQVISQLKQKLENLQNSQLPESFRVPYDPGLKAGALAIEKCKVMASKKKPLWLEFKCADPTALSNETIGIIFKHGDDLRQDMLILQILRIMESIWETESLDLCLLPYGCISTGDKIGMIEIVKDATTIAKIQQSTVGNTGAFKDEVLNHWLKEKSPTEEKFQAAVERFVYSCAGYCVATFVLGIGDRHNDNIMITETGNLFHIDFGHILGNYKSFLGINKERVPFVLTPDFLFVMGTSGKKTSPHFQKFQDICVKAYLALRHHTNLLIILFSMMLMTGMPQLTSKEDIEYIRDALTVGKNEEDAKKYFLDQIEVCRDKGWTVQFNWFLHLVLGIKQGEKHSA

| Compound | IC50 (PI3K beta) | IC50 (PI3K gamma) | IC50 [1] |
| --- | --- | --- | --- |
| COc1ccc(-c2ccc3ncc4c(c3c2)n(-c2ccnn2C)c(=O)n4C)cc1OC [Example 1.3, 8-(3,4-Dimethoxy-phenyl)-3-methyl-1-(2-methyl-2H-pyrazol-3-yl)-1,3-dihydro-imidazo[4,5-c]quinolin-2-one] | 129 nM | 540 nM | 140 nM |
| COc1ccc(-c2ccc3ncc4c(c3c2)n(-c2cn(C(C)C)nc2C)c(=O)n4C)cn1 [Example 2.8, 1-(1-Isopropyl-3-methyl-1H-pyrazol-4-yl)-8-(6-methoxy-pyridin-3-yl)-3-methyl-1,3-dihydro-imidazo[4,5-c]quinolin-2-one] | 109 nM | 205 nM | 105 nM |
| CCOc1ccc(-c2ccc3ncc4c(c3c2)n(-c2cnn(C)c2C)c(=O)n4C)cn1 [Example 3.6, 1-(1,5-Dimethyl-1H-pyrazol-4-yl)-8-(6-ethoxy-pyridin-3-yl)-3-methyl-1,3-dihydro-imidazo[4,5-c]quinolin-2-one] | 477 nM | 182 nM | 232 nM |
| CNC(=O)c1ccc(-c2ccc3ncc4c(c3c2)n(-c2cn(C(C)C)nc2C)c(=O)n4C)cn1 [Example 15.3, 5-[1-(1-Isopropyl-3-methyl-1H-pyrazol-4-yl)-3-methyl-2-oxo-2,3-dihydro-1H-imidazo[4,5-c]quinolin-8-yl]-pyridine-2-carboxylic acid methylamide] | 526 nM | 325 nM | 100 nM |
| COCCOc1ccc(-c2ccc3ncc4c(c3c2)n(-c2cn(C)nc2C)c(=O)n4C)cn1 [Example 18, 1-(1,3-Dimethyl-1H-pyrazol-4-yl)-8-[6-(2-methoxy-ethoxy)-pyridin-3-yl]-3-methyl-1,3-dihydro-imidazo[4,5-c]quinolin-2-one] | 252 nM | 397 nM | 314 nM |
| CCOc1ccc(-c2ccc3ncc4c(c3c2)n(-c2cn(CC)nc2C)c(=O)n4C)cc1OCC [Example 27.1, 8-(3,4-Diethoxy-phenyl)-1-(1-ethyl-3-methyl-1H-pyrazol-4-yl)-3-methyl-1,3-dihydro-imidazo[4,5-c]quinolin-2-one] | 122 nM | 215 nM | 56 nM |
| CCOc1cc(-c2ccc3ncc4c(c3c2)n(-c2c(C)nn(C)c2C)c(=O)n4C)ccc1OC [Example 28.2, 8-(3-Ethoxy-4-methoxy-phenyl)-3-methyl-1-(1,3,5-trimethyl-1H-pyrazol-4-yl)-1,3-dihydro-imidazo[4,5-c]quinolin-2-one] | 132 nM | 174 nM | 212 nM |
| CCOc1cc(-c2ccc3ncc4c(c3c2)n(-c2cn(C)nc2C)c(=O)n4C)ccc1OC [Example 28.3, 1-(1,3-Dimethyl-1H-pyrazo1-4-yl)-8-(3-ethoxy-4-methoxy-phenyl)-3-methyl-1,3-dihydro-imidazo[4,5-c]quinolin-2-one] | 31 nM | 194 nM | 24 nM |
| CCOc1ccc(-c2ccc3ncc4c(c3c2)n(-c2cn(C)nc2C)c(=O)n4C)cc1OC [Example 29.3, 1-(1,3-Dimethyl-1H-pyrazol-4-yl)-8-(4-ethoxy-3-methoxy-phenyl)-3-methyl-1,3-dihydro-imidazo[4,5-c]quinolin-2-one] | 144 nM | 169 nM | 38 nM |
| CCn1cc(-n2c(=O)n(C)c3cnc4ccc(-c5ccc(OCCOC)c(OC)c5)cc4c32)c(C)n1 [Example 30.2, 1-(1-Ethyl-3-methyl-1H-pyrazol-4-yl)-8-[3-methoxy-4-(2-methoxy-ethoxy)-phenyl]-3-methyl-1,3-dihydro-imidazo[4,5-c]quinolin-2-one] | 239 nM | 150 nM | 155 nM |
| Cc1nn(C)cc1-n1c(=O)n(C)c2cnc3ccc(-c4cccc(O)c4)cc3c21 [Example 32.1, 1-(1,3-Dimethyl-1H-pyrazol-4-yl)-8-(3-hydroxy-phenyl)-3-methyl-1,3-dihydro-imidazo[4,5-c]quinolin-2-one] | 43 nM | 140 nM | 193 nM |
| Cc1nn(C)cc1-n1c(=O)n(C)c2cnc3ccc(-c4cccc5c4OC(F)(F)O5)cc3c21 [Example 35, 8-(2,2-Difluoro-benzo[1,3]dioxol-4-yl)-1-(1,3-dimethyl-1H-pyrazol-4-yl)-3-methyl-1,3-dihydro-imidazo[4,5-c]quinolin-2-one] | 37 nM | 113 nM | 22 nM |
| Cc1nn(C)cc1-n1c(=O)n(C)c2cnc3ccc(-c4ccccc4)cc3c21 [Example 37.1, 1-(1,3-Dimethyl-1H-pyrazol-4-yl)-3-methyl-8-phenyl-1,3-dihydro-imidazo[4,5-c]quinolin-2-one] | 970 nM | 144 nM | 219 nM |
| Cc1nn(C)cc1-n1c(=O)n(C)c2cnc3ccc(-c4cccc(S(C)(=O)=O)c4)cc3c21 [Example 40, 1-(1,3-Dimethyl-1H-pyrazol-4-yl)-8-(3-methanesulfonyl-phenyl)-3-methyl-1,3-dihydro-imidazo[4,5-c]quinolin-2-one] | 34 nM | 83 nM | 138 nM |
| Cc1nn(C)cc1-n1c(=O)n(C)c2cnc3ccc(-c4ccc(C(N)=O)cc4)cc3c21 [Example 41, 4-[1-(1,3-Dimethyl-1H-pyrazol-4-yl)-3-methyl-2-oxo-2,3-dihydro-1H-imidazo[4,5-c]quinolin-8-yl]-benzamide] | 112 nM | 165 nM | 92 nM |
| Cc1nn(C)cc1-n1c(=O)n(C)c2cnc3ccc(-c4cccc(C(N)=O)c4)cc3c21 [Example 46, 3-[1-(1,3-Dimethyl-1H-pyrazol-4-yl)-3-methyl-2-oxo-2,3-dihydro-1H-imidazo[4,5-c]quinolin-8-yl]-benzamide] | 563 nM | 388 nM | 489 nM |
| Cc1nn(C)cc1-n1c(=O)n(C)c2cnc3ccc(-c4ccc5c(c4)CC(=O)N5)cc3c21 [Example 49, 1-(1,3-Dimethyl-1H-pyrazol-4-yl)-3-methyl-8-(2-oxo-2,3-dihydro-1H-indol-5-yl)-1,3-dihydro-imidazo[4,5-c]quinolin-2-one] | 506 nM | 278 nM | 442 nM |
| Cc1nn(C)cc1-n1c(=O)n(C)c2cnc3ccc(-c4cccc(S(=O)(=O)N(C)C)c4)cc3c21 [Example 53.1, 3-[1-(1,3-Dimethyl-1H-pyrazol-4-yl)-3-methyl-2-oxo-2,3-dihydro-1H-imidazo[4,5-c]quinolin-8-yl]-N,N-dimethyl-benzenesulfonamide] | 51 nM | 190 nM | 128 nM |
| COCc1cncc(-c2ccc3ncc4c(c3c2)n(-c2cn(C)nc2C)c(=O)n4C)c1 [Example 54.1, 1-(1,3-Dimethyl-1H-pyrazol-4-yl)-8-(5-methoxymethyl-pyridin-3-yl)-3-methyl-1,3-dihydro-imidazo[4,5-c]quinolin-2-one] | 28 nM | 157 nM | 112 nM |
| CCOc1cncc(-c2ccc3ncc4c(c3c2)n(-c2cn(C)nc2Cl)c(=O)n4C)c1 [Example 56.4, 1-(3-Chloro-1-methyl-1H-pyrazol-4-yl)-8-(5-ethoxy-pyridin-3-yl)-3-methyl-1,3-dihydro-imidazo[4,5-c]quinolin-2-one] | 6 nM | 121 nM | 11 nM |
| COc1ncc(-c2ccc3ncc4c(c3c2)n(-c2cn(C)nc2C)c(=O)n4C)cc1[N+](=O)[O-] [Example 66, 1-(1,3-dimethyl-1H-pyrazol-4-yl)-8-(6-methoxy-5-nitro-pyridin-3-yl)-3-methyl-1,3-dihydro-imidazo[4,5-c]quinolin-2-one] | 56 nM | 356 nM | 176 nM |
| Cc1nn(C)cc1-n1c(=O)n(C)c2cnc3ccc(-c4cnc5c(c4)nnn5C)cc3c21 [Example 72, 1-(1,3-Dimethyl-1H-pyrazol-4-yl)-3-methyl-8-(3-methyl-3H-[1,2,3]triazolo[4,5-b]pyridin-6-yl)-1,3-dihydro-imidazo[4,5-c]quinolin-2-one] | 112 nM | 341 nM | 225 nM |
| Cc1nn(C)cc1-n1c(=O)n(C)c2cnc3ccc(-c4cnc5c(c4)ncn5C)cc3c21 [Example 74, 1-(1,3-Dimethyl-1H-pyrazol-4-yl)-3-methyl-8-(3-methyl-3H-imidazo[4,5-b]pyridin-6-yl)-1,3-dihydro-imidazo[4,5-c]quinolin-2-one] | 370 nM | 307 nM | 280 nM |
| Cc1nn(C)cc1-n1c(=O)n(C)c2cnc3ccc(-c4ccc(OCCO)nc4)cc3c21 [Example 107, 1-(1,3-Dimethyl-1H-pyrazol-4-yl)-8-[6-(2-hydroxy-ethoxy)-pyridin-3-yl]-3-methyl-1,3-dihydro-imidazo[4,5-c]quinolin-2-one] | 95 nM | 147 nM | 193 nM |
| CCOc1ccc(-c2ccc3ncc4[nH]c(=O)n(-c5cn(C)nc5C)c4c3c2)cn1 [Example 110, 1-(1,3-Dimethyl-1H-pyrazol-4-yl)-8-(6-ethoxy-pyridin-3-yl)-1,3-dihydro-imidazo[4,5-c]quinolin-2-one] | 137 nM | 337 nM | 196 nM |
